Data on 16 molecules can be found in patent US12649750B2, “Macrocyclic compounds, compositions, and methods of using thereof” (Sionna Therapeutics Inc., priority 2022, dated 2026).

For assay [1], the target named is T1, NBD1 (Homo sapiens, UniProt P13569).
T1 construct: Purified recombinant NBD1 was produced using previously described methods; made in house
In words: Aggregation analysis using differential static light scattering (DSLS), thermal stability of NBD1 (ΔTagg). The class given is binding. To be noted: ΔTagg versus DMSO control, NBD1 0.2 mg/ml. The method, boiled down:
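NBD1 0.2 mg/ml, S200 buffer (50 mM Tris-HCl, 150 mM NaCl, 5 mM MgCl2, 2 mM ATP, 2 mM DTT, pH7.6) + 1% glycerol; cpd in DMSO; oil overlay. Ramp 25→70° C. at 1° C./min, DSLS images every 0.5° C. ΔTagg = Tagg (inflection) − mean DMSO Tagg.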

The target of assay [2] is T2, CFTR (Homo sapiens, UniProt P13569, DEL508-508).
T2 construct: Primary human bronchial epithelial cells from a ΔF508 homozygous CF donor; host or cells: primary human bronchial epithelial cells (CF-HBE), ΔF508 homozygous donor
T2 sequence (P13569 with tags, fused parts or gaps DEL508-508): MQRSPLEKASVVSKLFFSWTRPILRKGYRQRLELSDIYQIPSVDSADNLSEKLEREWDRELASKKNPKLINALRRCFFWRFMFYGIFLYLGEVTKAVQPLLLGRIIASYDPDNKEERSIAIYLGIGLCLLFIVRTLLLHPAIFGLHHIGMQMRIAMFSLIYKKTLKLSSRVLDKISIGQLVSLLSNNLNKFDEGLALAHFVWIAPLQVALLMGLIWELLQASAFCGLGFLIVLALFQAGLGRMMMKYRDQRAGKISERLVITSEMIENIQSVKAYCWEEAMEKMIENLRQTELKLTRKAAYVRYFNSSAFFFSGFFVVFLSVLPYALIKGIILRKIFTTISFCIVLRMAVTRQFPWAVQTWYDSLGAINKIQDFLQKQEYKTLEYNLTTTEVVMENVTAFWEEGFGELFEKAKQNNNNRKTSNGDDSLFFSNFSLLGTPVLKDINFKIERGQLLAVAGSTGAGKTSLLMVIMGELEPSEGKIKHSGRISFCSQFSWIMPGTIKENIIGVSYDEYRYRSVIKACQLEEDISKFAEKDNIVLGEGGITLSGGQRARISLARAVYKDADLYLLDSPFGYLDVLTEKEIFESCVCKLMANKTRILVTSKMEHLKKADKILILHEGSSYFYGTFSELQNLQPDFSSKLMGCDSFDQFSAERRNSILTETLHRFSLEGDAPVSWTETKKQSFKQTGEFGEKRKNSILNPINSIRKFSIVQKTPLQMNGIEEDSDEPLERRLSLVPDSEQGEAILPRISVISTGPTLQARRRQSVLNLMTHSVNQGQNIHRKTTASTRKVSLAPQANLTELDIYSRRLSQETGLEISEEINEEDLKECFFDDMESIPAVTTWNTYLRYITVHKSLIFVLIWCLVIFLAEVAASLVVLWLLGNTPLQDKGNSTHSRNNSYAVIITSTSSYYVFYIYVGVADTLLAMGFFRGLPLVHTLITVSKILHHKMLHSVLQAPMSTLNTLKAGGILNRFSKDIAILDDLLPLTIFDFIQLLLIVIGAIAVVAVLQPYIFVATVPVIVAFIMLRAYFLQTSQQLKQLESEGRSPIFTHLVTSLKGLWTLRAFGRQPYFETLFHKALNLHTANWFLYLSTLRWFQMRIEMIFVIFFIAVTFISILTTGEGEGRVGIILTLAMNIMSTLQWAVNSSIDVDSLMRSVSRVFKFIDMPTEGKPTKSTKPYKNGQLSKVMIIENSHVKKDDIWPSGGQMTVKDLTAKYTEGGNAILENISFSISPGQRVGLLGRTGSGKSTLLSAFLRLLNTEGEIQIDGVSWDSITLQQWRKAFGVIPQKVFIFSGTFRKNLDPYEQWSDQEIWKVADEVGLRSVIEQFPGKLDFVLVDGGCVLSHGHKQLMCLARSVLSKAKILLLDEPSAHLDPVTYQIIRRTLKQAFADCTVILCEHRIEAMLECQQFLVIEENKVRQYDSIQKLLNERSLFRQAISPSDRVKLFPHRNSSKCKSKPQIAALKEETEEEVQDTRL
In words: TECC24 AUC fold over DMSO @10 μM, CFTR-mediated transepithelial chloride transport in CF-HBE cells. The class given is cell-based. Conditions: test agent AUC divided by DMSO vehicle AUC, primary CF-HBE cells, ΔF508 homozygous donor, 48 hours incubation. In outline: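 Primary ΔF508-homozygous CF bronchial epithelial cells on inserts were incubated 48 h at 36.5 °C with compound in IL-13-containing medium. VT and TEER were then recorded in current-clamp mode (pH 7.4 HEPES bath) with benzamil 10 μM, forskolin 10 μM, then CFTR inhibitor-172 20 μM. The IEQ AUC between forskolin and inhibitor was divided by vehicle AUC.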

T1 sequence (P13569 423-646 limits assumed): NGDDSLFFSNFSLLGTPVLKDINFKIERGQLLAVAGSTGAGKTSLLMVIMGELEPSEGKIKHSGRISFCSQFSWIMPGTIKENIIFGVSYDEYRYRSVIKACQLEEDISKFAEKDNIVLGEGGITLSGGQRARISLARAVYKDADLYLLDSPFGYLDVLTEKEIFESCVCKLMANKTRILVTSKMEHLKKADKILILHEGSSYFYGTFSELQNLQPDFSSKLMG

For the molecule `Cn1nc2nc1-c1cc(ccc1F)Oc1c(F)cc3[nH]ccc3c1CCS(=O)(=O)CC(C)(C)/C(F)=C/CC2(C)c1cccc(CCC(=O)O)c1` (centres unmarked) [Compound 107, 3-[3-[(8Z)-9,22,28-Trifluoro-3,6,10,10-tetramethyl-12,12-dioxo-24-oxa-12lambda6-thia-3,4,19,30-tetrazapentacyclo-[23.3.1.12,5.015,23.016,20]triaconta-1(29),2(30),4,8,15,17,20,22,25,27-decaen-6-yl]phenyl]propanoic acid], the “DSLS 3D (100 μM ΔT)” value in assay [1] was “C (a value greater than 10 °C and less than or equal to 25 °C is marked “C”)”. In addition, the “TECC (AUC, 10 μM)” value in assay [2] is “A (a TECC value less than 12 is marked “A”)”.

With `C[C@H](Cc1cccc(C2(C)CCCC(C)(C)CS(=O)(=O)CCc3c(c(F)cc4[nH]ccc34)Cc3ccc(F)c(c3)-c3nc2nn3C)c1)C(=O)O` (single isomer, unassigned) [Compound 169A], in assay [1], the “DSLS 3D (100 μM ΔT)” value was “C (a value greater than 10 °C and less than or equal to 25 °C is marked “C”)”. Besides, the “TECC (AUC, 10 μM)” value in assay [2] was “A (a TECC value less than 12 is marked “A”)”.

`C[C@@H](Cc1cccc(C2(C)CCCC(C)(C)CS(=O)(=O)CCc3c(c(F)cc4[nH]ccc34)Oc3ccc(F)c(c3)-c3nc2nn3C)c1)C(=O)OCCN1CCN(C)CC1` (single isomer, unassigned) [Compound 143]: the “DSLS 3D (100 μM ΔT)” value in assay [1] was “B (a value above 5 °C and less than or equal to 10 °C is marked “B”)”. Besides, in assay [2], the “TECC (AUC, 10 μM)” value is given as “B (a value between 12-20 is marked “B”)”.

On to `C[C@@H](Cc1cccc([C@@]2(C)CCCC(C)(C)CS(=O)(=O)CCc3c(c(F)cc4[nH]ccc34)[S+]([O-])c3cccc(c3)-c3nc2nn3C)c1)C(=O)O` (single isomer, unassigned) [Compound 211B], for which the “DSLS 3D (100 μM ΔT)” value in assay [1] is “C (a value greater than 10 °C and less than or equal to 25 °C is marked “C”)”. The “TECC (AUC, 10 μM)” value in assay [2] is on record as “A (a TECC value less than 12 is marked “A”)”.

In the case of `CC1(C)COCCC(c2cccc(CCC(=O)O)c2)n2nccc2-c2cc(ccc2F)Oc2c(F)cc3[nH]ccc3c2CS(=O)(=O)C1` (centres unmarked) [Compound 60, 3-[3-(23,29-Difluoro-12,12-dimethyl-14,14-dioxo-10,25-dioxa-14λ6-thia-5,6,20-triazapentacyclo[24.3.1.02,6.016,24.017,21]triaconta-1(30),2,4,16,18,21,23,26,28-nonaen-7-yl)phenyl]propanoic Acid], the “DSLS 3D (100 μM ΔT)” value in assay [1] is “A (an ΔTagg value less than or equal to 5 °C is marked “A”)”. Also, the “TECC (AUC, 10 μM)” value in assay [2] was “A (a TECC value less than 12 is marked “A”)”.

Take `COC(=O)CCc1cccc(C2(C)CCCC(C)(C)CS(=O)(=O)CCc3c(c(F)cc4[nH]ccc34)C(=O)c3ccc(F)c(c3)-c3nc2nn3C)c1` (single isomer, unassigned) [Compound 31A, methyl 3-[3-[22,28-difluoro-3,6,10,10-tetramethyl-12,12,24-trioxo-12lambda6-thia-3,4,19,30-tetrazapentacyclo[23.3.1.12,5.015,23.016,20]triaconta-1(29),2(30),4,15,17,20,22,25,27-nonaen-6-yl]phenyl]propanoate]: the “DSLS 3D (100 μM ΔT)” value in assay [1] is “B (a value above 5 °C and less than or equal to 10 °C is marked “B”)”. The “TECC (AUC, 10 μM)” value in assay [2] is “C (a value between 20 and 80 is marked “C”)”.

Turning to `[2H]C([2H])([2H])C1(c2cccc(CC(C)C(=O)O)c2)CCC(C)(C)CCS(=O)(=O)CCc2c(c(F)cc3[nH]ccc23)Oc2ccc(F)c(c2)-c2nc1nn2C` (single isomer, unassigned) [Compound 119B, 3-[3-[22,28-difluoro-3,9,9-trimethyl-12,12-dioxo-6-(trideuteriomethyl)-24-oxa-12lambda6-thia-3,4,19,30-tetrazapentacyclo[23.3.1.12,5.015,23.016,20]triaconta-1(29),2(30),4,15,17,20,22,25,27-nonaen-6-yl]phenyl]-2-methyl-propanoic acid], in assay [1], the “DSLS 3D (100 μM ΔT)” value was “B (a value above 5 °C and less than or equal to 10 °C is marked “B”)”. In assay [2], the “TECC (AUC, 10 μM)” value is listed as “A (a TECC value less than 12 is marked “A”)”.

Consider `[2H]C([2H])([2H])n1nc2nc1-c1cc(ccc1F)Oc1c(F)cc3[nH]ccc3c1CCS(=O)(=O)CC(C)(C)CCCC2(C)c1cccc(OCC(=O)O)c1` (single isomer, unassigned) [Compound 1A, 2-[3-[22,28-Difluoro-6,10,10-trimethyl-12,12-dioxo-3-(trideuteriomethyl)-24-oxa-12λ^6-thia-3,4,19,30-tetrazapentacyclo[23.3.1.1^2,5.0^15,23.0^16,20]triaconta-1(29),2(30),4,15,17,20,22,25,27-nonaen-6-yl]phenoxy]acetic Acid], for which the “DSLS 3D (100 μM ΔT)” value in assay [1] is “C (a value greater than 10 °C and less than or equal to 25 °C is marked “C”)”. For the same molecule, the “TECC (AUC, 10 μM)” value in assay [2] was “C (a value between 20 and 80 is marked “C”)”.

Regarding `CC(C)n1nc2nc1C(C)(c1cccc(CCC(=O)O)c1)CCCC(C)(C)CS(=O)(=O)CCc1c(c(F)cc3[nH]ccc13)Oc1ccc(F)c-2c1` (centres unmarked) [Compound 74, 3-[3-(22,28-Difluoro-4-isopropyl-6,10,10-trimethyl-12,12-dioxo-24-oxa-12λ6-thia-3,4,19,30-tetrazapentacyclo-[23.3.1.12,5.015,23.016,20]triaconta-1(29),2,5(30),15,17,20,22,25,27-nonaen-6-yl)phenyl]propanoic acid], in assay [1], the “DSLS 3D (100 μM ΔT)” value is “C (a value greater than 10 °C and less than or equal to 25 °C is marked “C”)”. Further, the “TECC (AUC, 10 μM)” value in assay [2] is on record as “A (a TECC value less than 12 is marked “A”)”.

As to `C[C@@H](Cc1cccc(C2(C)CCCC(C)(C)CS(=O)(=O)CCc3c(c(F)cc4[nH]ccc34)Oc3ccc(F)c(c3)-c3nc2nn3C)c1)C(=O)OCCN1CCOCC1` (single isomer, unassigned) [Compound 142], the “DSLS 3D (100 μM ΔT)” value in assay [1] was “B (a value above 5 °C and less than or equal to 10 °C is marked “B”)”. Besides, the “TECC (AUC, 10 μM)” value in assay [2] is listed as “B (a value between 12-20 is marked “B”)”.

For the molecule `CC(C(=O)O)C(C)c1cccc(C2(C)CCCC(C)(C)CS(=O)(=O)CCc3c(c(F)cc4[nH]ccc34)Oc3ccc(F)c(c3)-c3nc2nn3C)c1` (centres unmarked) [Compound 156, 3-[3-(22,28-Difluoro-3,6,10,10-tetramethyl-12,12-dioxo-24-oxa-12λ6-thia-3,4,19,30-tetrazapentacyclo[23.3.1.12,5.015,23.016,20]triaconta-1(29),2(30),4,15,17,20,22,25,27-nonaen-6-yl)phenyl]-2-methyl-butanoic Acid], in assay [1], the “DSLS 3D (100 μM ΔT)” value was “C (a value greater than 10 °C and less than or equal to 25 °C is marked “C”)”. In assay [2], the “TECC (AUC, 10 μM)” value is “B (a value between 12-20 is marked “B”)”.

As for `O=C(O)CCc1cccc(C2NC(=O)CCCS(=O)(=O)CCc3c(c(F)cc4[nH]ccc34)Oc3ccc(F)c(c3)-c3ncc2[nH]3)c1` (single isomer, unassigned) [Compound 82, 3-[3-[22,28-difluoro-8,12,12-trioxo-24-oxa-12lambda6-thia-3,7,19,30-tetrazapentacyclo [23.3.1.12,5.015,23.016,20]-triaconta-1(29),2,4,15,17,20,22,25,27-nonaen-6-yl]phenyl]propanoic acid], the “DSLS 3D (100 μM ΔT)” value in assay [1] was “C (a value greater than 10 °C and less than or equal to 25 °C is marked “C”)”. Besides, in assay [2], the “TECC (AUC, 10 μM)” value is “A (a TECC value less than 12 is marked “A”)”.

`Cn1nc2nc1-c1cccc(c1)Oc1c(F)cc3[nH]ccc3c1CCS(=O)(=O)CC(C)(C)CCCC2(C)c1cccc(CCC(=O)O)c1` (single isomer, unassigned) [Compound 95B, 3-[3-(22-fluoro-3,6,10,10-tetramethyl-12,12-dioxo-24-oxa-12λ6-thia-3,4,19,30-tetrazapentacyclo[23.3.1.12,5.015,23.016,20]triaconta-1(29),2(30),4,15,17,20,22,25,27-nonaen-6-yl)phenyl]propanoic Acid]: in assay [1], the “DSLS 3D (100 μM ΔT)” value is “C (a value greater than 10 °C and less than or equal to 25 °C is marked “C”)”. In assay [2], the “TECC (AUC, 10 μM)” value is “A (a TECC value less than 12 is marked “A”)”.

Consider `C[C@@H](Cc1cccc(C2(C)CCCC(C)(C)CS(=O)(=O)CCc3c(c(F)cc4[nH]ccc34)Oc3ccc(F)c(c3)-c3nc2c[nH]3)c1)C(=O)O` (single isomer, unassigned) [Compound 129A], for which, in assay [1], the “DSLS 3D (100 μM ΔT)” value was “A (an ΔTagg value less than or equal to 5 °C is marked “A”)”. Moreover, the “TECC (AUC, 10 μM)” value in assay [2] is listed as “A (a TECC value less than 12 is marked “A”)”.

For `Cn1nc2nc1-c1cc(ccn1)Oc1c(F)c(F)c3[nH]ccc3c1CCS(=O)(=O)CC(C)(C)CCC[C@]2(C)c1cccc(CCO)c1` [Compound 258, 2-[3-[(6R)-21,22-Difluoro-3,6,10,10-tetramethyl-12,12-dioxo-24-oxa-12λ6-thia-3,4,19,28,30-pentazapentacyclo[23.3.1.12,5.015,23.016,20]triaconta-1(29),2(30),4,15,17,20,22,25,27-nonaen-6-yl]phenyl]ethanol], the “DSLS 3D (100 μM ΔT)” value in assay [1] is “C (a value greater than 10 °C and less than or equal to 25 °C is marked “C”)”. The “TECC (AUC, 10 μM)” value in assay [2] was “C (a value between 20 and 80 is marked “C”)”.

Regarding `CONC(=O)[C@@H](C)Cc1cccc(C2(C)CCCC(C)(C)CS(=O)(=O)CCc3c(c(F)cc4[nH]ccc34)Oc3ccc(F)c(c3)-c3nc2nn3C)c1` (single isomer, unassigned) [Compound 147], the “DSLS 3D (100 μM ΔT)” value in assay [1] was “C (a value greater than 10 °C and less than or equal to 25 °C is marked “C”)”. Also, the “TECC (AUC, 10 μM)” value in assay [2] is “A (a TECC value less than 12 is marked “A”)”.
